Reference: a melting point compilation (Tetko et al.; mined from patent text by program, amines drawn as free bases though some values may be those of a salt)
Residues, ends and D or L forms follow the SMILES beside them. *: point of attachment. Cbz = O=C(OCc1ccccc1)*; Boc = CC(C)(C)OC(=O)*

melting point [°C]	Structure (SMILES)
130	CCOc1ccc2c(c1)C(C)(c1cc(C(=O)N3CC4CCN(C)C4C3)ccc1Cl)C(=O)N2S(=O)(=O)c1ccc(C(=O)NC(C)(C)C)cc1OC (configuration not stated)
158 to 160	COc1ccc(C(=O)c2cc3c(ccc4ccccc43)oc2=O)cc1
257 to 259	O=C1Nc2ccc(F)cc2C12COc1cc3c(cc12)CCO3 (configuration not stated)
79 to 81	CCSc1cc(C#N)c(Oc2ccc(Cl)c(Cl)c2)cn1
164 to 167	Cn1cc(-c2cccc(Cl)c2)c(=O)c(-c2cccc(Cl)c2)c1
97 to 98	O=C(CCCCl)Nc1cn(-c2cccnc2)nc1Cl
68 to 70	C=CCNc1nc(NCCCC)c2scc(C)c2n1
141	CCCCCCCCc1ncc([N+](=O)[O-])n1C
150 to 151	COc1ccc(-n2ccnc2C(c2cc(F)ccc2F)S(=O)(=O)c2ccc(Cl)cc2)cc1 (configuration not stated)
195 to 196	CSc1ccc2c(c1)C(=O)c1cc3ccccc3cc1C2=O
70 to 72	CNC(=O)n1nc(Oc2ccc(C(F)(F)F)cc2[N+](=O)[O-])cc1C
107 to 109	CN(CCN(O)C(N)=O)Cc1cccc(Oc2ccc(Cl)c(Cl)c2)c1
106 to 107	CCOC(=O)c1ncoc1-c1ccc([N+](=O)[O-])cc1OC
250 to 253	CC1(C)CC(=O)C(c2ccc([N+](=O)[O-])cc2Cl)C(=O)C1
166 to 171	CC1(C)CCc2ccc(C(=O)O)cc2CC1
66 to 69	CCC1(CCCN2CCc3sccc3C2)C(=O)Nc2ccc(Cl)cc21 (configuration not stated)
190 to 192	Cc1ccc(-n2ncc(-c3ccc(S(C)(=O)=O)cc3)c(-c3ccc(F)cc3)c2=O)cc1
211 to 215	CCOc1ccc(-c2ccc3c(c2)C=C(C(=O)Nc2ccc(CN(C)C4CCOCC4)cc2)CCN3C=O)cc1
175	Nc1cc2nc(N)c(-c3ccccc3Cl)cc2cn1
282 to 288	Cn1cc(C=C2SC(=S)N(CC(=O)O)C2=O)c2ccccc21
69	Cc1c(F)cccc1NN
90	CC(C)(C)OC(=O)NC(CCCCNC(=O)OCc1ccccc1)C(=O)N1CCCC1C(=O)NC(CCCNC(=N)N)C(=O)O (stereo not drawn) (Boc-Lys(Cbz)-Pro-Arg-OH; configuration not given here)
142 to 150	COc1cc(OC)nc(OC(C(=O)O)C(C)(C)C#N)n1 (configuration not stated)
180 to 185	CNS(=O)(=O)c1ccccc1S(=O)(=O)NC(=O)Nc1nc(C)cc(C)n1

melting point [°C]	Structure (SMILES)
214 to 216	COC(=O)C1(C)CN(C(=O)Nc2c(C)noc2C)N=C1c1ccc(Cl)cc1 (configuration not stated)
200	COCn1cc(C2=C(C#N)C(c3cccc4nonc34)c3c[nH]nc3N2)c2ccccc21 (configuration not stated)
259 to 261	O=C(Nc1cc(F)cc(F)c1)c1cc(Br)ccc1O
208 to 209	O=C1NCCOc2cc([N+](=O)[O-])ccc21
95.5 to 97.5	CCCc1c(OCCCCCOc2ccc3c(c2CCC)OC(C(=O)O)CC3O)ccc(C(C)=O)c1O (configuration not stated)
135	NS(=O)(=O)c1cc(C(=O)OCC(=O)NCCO[N+](=O)[O-])c(NCc2ccco2)cc1Cl
121 to 124	CC(=NS(=O)(=O)C=Cc1c(Cl)cccc1Cl)NC1CC1
280 to 282	c1ccc2c(c1)cc(-c1nnn[nH]1)c1nnnn12
165 to 167	CCOC(=O)C(C)(C)NC(=O)c1nnc2ccc(NCCCN3CCC(OC(c4ccccc4)c4ccccc4)CC3)nn12
80 to 81	CC[C@H](C)[C@H](N)C(=O)N(CC(C)C)C(=O)[C@@H]1CCCN1CC(=O)[C@H](Cc1ccccc1)NC(=O)OCc1ccccc1
225	Cc1cc(C(=O)O)c2[nH]c3c(c2c1)CCCC3
234	CCCOc1ccccc1-c1nc(O)cc(C(N)=O)n1
123 to 125	Cc1ccc(-c2cc(Cl)c3cc(Cl)ccc3n2)cc1
108 to 109	COc1ccc(/C=N/N2C=COC=C2)cc1OC1CCCC1
268 to 270	CCNCC1CCN(c2nc3c(cc2F)c(=O)c(C(=O)O)cn3C2CC2)C1 (configuration not stated)
159 to 160	c1ccc(N2CCN(CCC3CCC(Nc4cccnc4)CC3)CC2)cc1 (configuration not stated)
206 to 207	Cc1sc(-c2ccc(Br)cc2)nc1O
68 to 70	CC(=O)NCCC1(C[N+](=O)[O-])CCCCC1
130 to 131	Cc1cc(N2C(=O)N(CCCCCN3C(=O)N(c4ccc([N+](=O)[O-])c(C)c4)C(=O)C3(C)C)C(C)(C)C2=O)ccc1[N+](=O)[O-]
91 to 92	COC(=O)c1cc(OCCCCCCOc2ccc(-c3ccccc3)cc2)ccc1O
186 to 189	c1cncc(-c2cccn3cnnc23)c1
151	CCCO[Si](C)(CCN=C(O)C1(C)C(C)(C(=O)O)C(C)(C(=O)O)C1(C)C(O)=NCC[Si](C)(OCCC)OCCC)OCCC (configuration not stated)
141 to 144	NC(=O)CN(CCCCCCNc1nsc2nccn12)S(=O)(=O)c1cccc2ccccc12
107	CCC([O-])=C(C(=O)OCc1ccccc1)N1C(=O)CC1[N+](CC)(CC)CC (configuration not stated)

melting point [°C]	Structure (SMILES)
271	NC(=CC(=O)N1CCn2c(nnc2C(F)(F)F)C1)Cc1cc(F)c(F)cc1F
180 to 182	Cc1cc(C)cc(-n2c(C=CC3CC(O)CC(O)O3)c(C(C)C)c3ccccc3c2=O)c1 (mixture of isomers)
189 to 190	OCCCCc1c[nH]c2ccccc12
112 to 113	O=C(COc1ccccc1Br)c1ccccc1
165 to 167	COCCNC(=O)c1cc(C(=O)OC)c2cc(Cc3ccc(F)cc3)cnc2c1O
151 to 153	Nc1ccc([N+](=O)[O-])cc1OCCc1cccc2ccccc12
90 to 92	CC(C)(C)OC(=O)C(C#N)C(=O)c1cc(F)c(F)c(F)c1F (configuration not stated)
120	Cc1sc(C=O)cc1NC(=O)OCc1ccccc1
166 to 167	COc1cc(C=O)ccc1OCc1nc(-c2cccc(C#N)c2)oc1C
142 to 143	CN(CCOc1ccc(CC(Cl)C(=O)O)cc1)c1nc2ccccc2o1 (configuration not stated)
132 to 134	CCCCc1nc2ccccc2n1Cc1ccc(-c2ccccc2C(=O)OC)cc1
156 to 158	O=C(c1cc2[nH]nc(-c3cc4cc(CO)ccc4[nH]3)c2s1)N1CCN(c2ccc(F)cc2)CC1
240 to 241	NC(=O)c1nc(Cl)cc(N)c1Cl
68	CC(C)(C)OC(=O)C(=[N+]=[N-])C(=O)COCc1ccccc1
242 to 243	NS(=O)(=O)c1ccc(S(=O)(=O)N2CCc3cccc(-c4ccncc4)c32)cc1
200 to 201	O=C1c2ccc(OCCN3CCOCC3)cc2C(=O)c2ccc(OCCN3CCOCC3)cc21
178	Cn1ccc2c1Cc1nncn1C=C2
264 to 267	CCn1cc(C(=O)O)c(=O)c2cc(F)c(N3Cc4ccc(C(=O)OC)cc4C3)c(F)c21
28 to 32	COCc1c(Cl)nnc(Cl)c1OC
> 320	CC(=O)c1ccc2nc3n(c2c1)CCC(=O)N3
90	O=C(c1ccccc1)C1OC1c1ccccc1 (configuration not stated)
88 to 92	CCOC(=O)C(O)=CC(=O)c1ccc(C)o1
93 to 94	CCOP(=O)(/C=C/c1cn(-c2ccccc2)nc1OCc1ccc(OCc2csc(N3CCOCC3)n2)c(OC)c1)OCC
114	COC(=O)c1ccc(C#Cc2ccccc2)cc1

melting point [°C]	Structure (SMILES)
236 to 239	C=CCc1c(O)ccc2c1CCC(=O)N2
165 to 168	CCCCCCCCCC(=O)Oc1ccc2cc(C(=N)N)ccc2c1
198 to 199	O=c1c(CCCc2nccs2)cc2cccnc2n1-c1cccc([N+](=O)[O-])c1
146 to 147	CCOC(=O)C(=O)N(c1ccccc1)c1cc(OC)c([N+](=O)[O-])cc1OC
145 to 146	COc1ccc(-c2cc(=O)n(CCN3CCOCC3)nc2-c2ccc(OC)cc2)cc1
184	CCOC(=O)c1c(C(F)(F)F)nc2ccc(OC)cc2c1O
185 to 186	CC(c1ccc(-c2ccc(OCc3nc4ccccc4s3)cc2)c(F)c1)N(O)C(N)=O (configuration not stated)
78 to 80	COc1ncc(OC)c(Cl)n1
192	Cc1cccc(NC(=O)NCC(=O)N(CC(=O)OC2(C)CCCCC2)c2ccccc2)c1
155 to 157	CC(C)(C)OC(=O)NC1CN(C(C(=O)OC(c2ccccc2)c2ccccc2)c2ccc(OC(=O)OC(C)(C)C)cc2)C1=O (configuration not stated)
115 to 116	CC(C)Oc1ccc(SCCSc2ccc(OC(C)C)cc2)cc1
221	CCOC(=O)Cn1c(=O)[nH]c2ccc(C(=O)c3c(-c4ccccc4)c(OC)c4ccccn34)cc2c1=O
150 to 152	CCOc1c2c(nc3c1cnn3CC)C(=O)c1ccccc1CC2
176	COc1ccc(C2COc3c(ccc(O)c3O)C2)cc1OC (configuration not stated)
112 to 114	COc1cc(C(=O)O)ccc1Cc1cn(C)c2ccc(C(=O)N(C)CC3CCCC3)cc12
141	CCOc1cc2c(cc1OCC)C1CN(C)CCC1N=C2c1ccc(C#N)cc1 (single isomer, unassigned; (-))
93 to 96	C#CCOc1cc(-c2nn(C)c(S(C)=O)c2C)c(F)cc1Cl (configuration not stated)
192	CC(C)[Si](Oc1c(F)cc([C@@H](O)[C@@H](C)N2CCC(O)(c3ccc(Cl)cc3)CC2)cc1F)(C(C)C)C(C)C (relative stereo)
93	CNc1cccc([N+](=O)[O-])c1N
> 300	Cc1c(F)c(N2CCC(N)C2)cc2c1c(=O)c(C(=O)O)cn2C1CC1 (configuration not stated)
139 to 140	COC(=O)c1cccc(-c2cc(-c3ccc(C(F)(F)F)cc3)on2)c1
176 to 177	O=c1ccn(-c2cccnc2)nc1-c1ccnn1-c1ccccc1

Structure (SMILES)	melting point [°C]
COc1cc(F)c(CNCCc2ccc(O)cc2)cc1O	160 to 162
CN(CCO)C(=O)C(C)(C)NC(=O)c1cc2c(n(CC3CCCCC3)c1=O)CCCCCC2	195 to 196
N#Cc1c(N2CCNCC2)c(F)cc2c(=O)c(C(=O)O)cn(C3CC3)c12	> 300
